According to patent US8927498B2, “Compositions and methods useful in enhancement of memory” (The Translational Genomics Research Institute, priority 2010, dated 2015):
Entries after “also recorded” stand apart in the source; their conditions may differ.

Columns and labels:
[1] = test system: seventeen-month-old Fischer-344 male rats (aged rat model of cognitive decline); experiment: water-escape radial arm maze, spatial working memory; type: in vivo; conditions: 17-month-old Fischer-344 male rats, 1 mg/kg/day, vs vehicle (saline)
Experimental: In one embodiment of the present disclosed invention, the transduction complex comprises a fusion peptide including a TAT protein transduction domain and residues surrounding two known serine phosphorylation targets (Ser159 and Ser163) within MARCKS (SEQ ID NO: 3). The compound was administered to seventeen-month-old rats and behavioral spatial working memory of the rats was assessed by behavior testing. […] Such assays include, without limitation, the Morris water maze and the radial arm water maze, plus maze. For example, when employing the Morris water maze, a rat is trained to swim to a submerged platform. The rat can then be treated with an agent at a particular dose for a particular duration. Following treatment, the mean escape latency (i.e., time to find platform) is measured and compared to the mean escape latency of a control. […] Following treatment, the ability of the rat to remember a newly-learned path is measured and compared to that of a control. […] In the water Plus Maze test, the variables measured include the percentage of time spent in the open and closed areas of the maze, the latency to leave the central platform, the total number of crossings between the various open and closed areas of the maze, and the number of crossings into the open areas of the maze divided by the total number of crossings. […]

[2] = test system: hippocampal expression of candidate genes; experiment: hippocampal expression of candidate genes, Illumina RatRef-12 expression BeadChip; type: in vivo, rat
Excerpt: (§1) Following sacrifice, the left hippocampus was utilized for genome-wide expression profiling. […] These included Adcyap1 with fold change (FC) of 1.5, and p=0.029, Tiam1 with FC of −1.5 and p=0.028, and Filip1 with FC of −1.75 and p=0.032 (Table 1). The RT-PCR validation of the fold change of FILIP1 and Tiam1 is shown in Table 2 and Table 3, respectively.

Tiam1 = experiment: RT-PCR validation of Tiam1 normalized to GADPH; type: in vivo, rat; conditions: n = 9; vehicle 1.02
Excerpt: as §1

[3] = hippocampus, treated vs. vehicle rats, Mann-Whitney
[4] = hippocampus, treated vs. vehicle rats, T-Test
[5] = left hippocampus, genome-wide expression profiling

## SEQ ID NO: 1: fusion peptide including a TAT protein transduction domain and residues surrounding two known serine phosphorylation targets (Ser159 and Ser163) within MARCKS (YGRKKRRQRRRCKRFSFKKSFKLSGFSFKK; TAT MARCKS fusion)
[1]; n=9
  working memory performance in water-escape radial arm maze: better able to process multiple items of information; also recorded: enhanced working memory performance
[1]; n=9, listed as MARCKS peptide decoy
  working memory performance in water-escape radial arm maze: better performance in the radial arm water maze
[2]; [3]
  Fold Change Filip1: −1.747
  Fold Change Gna1: −1.534
  Fold Change Ptpro: −1.708
  Fold Change Tiam1: −1.510
  Fold Change Tp53i11_predicted: −1.581
[2]; [4]
  Fold Change Adcyap1: 1.554
  Fold Change Filip1: −1.747
  Fold Change LOC501145: 1.566
  Fold Change Perp_predicted: −1.647
  Fold Change Tiam1: −1.499
  Fold Change Tp53i11_predicted: −1.554
[2]; [5]
  fold change (FC) Adcyap1: 1.5
  fold change (FC) Filip1: −1.75
  fold change (FC) Tiam1: −1.5
Tiam1
  RT-PCR Tiam1 Average normalized to GADPH: 0.89
